Paper PMC7999182, “Interaction of Remdesivir with Clinically Relevant Hepatic Drug Uptake Transporters” (Pharmaceutics, 2021)

What was measured:
OATP1B1 = target: T1, OATP1B1 (Homo sapiens, UniProt Q9Y6L6); test: Inhibition of OATP1B1-mediated BSP uptake; format: cell-based
T1 construct: expressed in transfected cells
T1 sequence (Q9Y6L6 1-691): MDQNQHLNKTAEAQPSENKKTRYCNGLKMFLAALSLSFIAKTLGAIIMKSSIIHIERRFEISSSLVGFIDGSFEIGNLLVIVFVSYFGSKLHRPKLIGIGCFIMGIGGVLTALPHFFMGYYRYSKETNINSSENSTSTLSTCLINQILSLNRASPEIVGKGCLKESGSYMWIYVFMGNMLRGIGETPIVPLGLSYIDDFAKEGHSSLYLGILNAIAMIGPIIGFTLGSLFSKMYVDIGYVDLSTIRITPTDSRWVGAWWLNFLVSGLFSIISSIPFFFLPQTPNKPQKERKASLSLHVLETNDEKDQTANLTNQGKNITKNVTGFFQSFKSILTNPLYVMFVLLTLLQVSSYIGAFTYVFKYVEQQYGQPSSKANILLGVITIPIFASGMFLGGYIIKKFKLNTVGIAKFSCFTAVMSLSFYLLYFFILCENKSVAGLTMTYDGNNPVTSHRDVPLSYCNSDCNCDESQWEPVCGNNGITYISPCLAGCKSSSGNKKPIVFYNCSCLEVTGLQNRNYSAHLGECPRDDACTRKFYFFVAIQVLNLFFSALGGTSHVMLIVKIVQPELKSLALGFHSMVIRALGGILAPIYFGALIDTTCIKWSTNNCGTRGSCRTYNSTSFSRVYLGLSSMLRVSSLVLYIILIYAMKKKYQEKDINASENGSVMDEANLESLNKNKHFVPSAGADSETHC
Description: (§1) Generation, cultivation and characterization of human embryonic kidney (HEK) cells stably expressing OATP1B1 refseq (=OATP1B1*1a), OATP1B1*1b, OATP1B1*5 and OATP1B1*15 [18], OATP1B3 [19], OATP2B1 [13] and OCT1 [20] have been described previously. OATP1B1 cells were cultivated in minimal essential medium (Life Technologies, Paisley, UK) and OATP1B3, OATP2B1 and OCT1 cells were cultivated in Dulbecco’s modified Eagle medium (Sigma, Darmstadt, Germany). Cultivation media were supplemented with 10% fetal calf serum, 100 U/mL penicillin and 100 µg/mL streptomycin. Cells were grown at 37 °C and 5% CO2. Functionality of the cells was confirmed by measuring uptake of prototypic substrates (see Section 2.3 and supplementary material).
(§2) Prototypic substrate uptake was performed as described previously. For this, uptake solutions contained the respective substrate with tracer amounts of radiolabeled substrate. In case of inhibition studies, uptake solutions additionally contained different concentrations of remdesivir. […] Cells were then lysed with 0.2% sodium dodecyl sulfate and intracellular radioactivity was measured by liquid scintillation counting (Tricarb2800, PerkinElmer Life Sciences GmbH, Rodgau, Germany or Hidex 300SL TDCR liquid scintillation counter, Turku, Finland). […]

OATP2B1 = target: T2, OATP2B1 (Homo sapiens, UniProt O94956); test: Inhibition of OATP2B1-mediated estrone sulfate uptake; format: cell-based
T2 construct: expressed in transfected cells
T2 sequence (O94956 1-709): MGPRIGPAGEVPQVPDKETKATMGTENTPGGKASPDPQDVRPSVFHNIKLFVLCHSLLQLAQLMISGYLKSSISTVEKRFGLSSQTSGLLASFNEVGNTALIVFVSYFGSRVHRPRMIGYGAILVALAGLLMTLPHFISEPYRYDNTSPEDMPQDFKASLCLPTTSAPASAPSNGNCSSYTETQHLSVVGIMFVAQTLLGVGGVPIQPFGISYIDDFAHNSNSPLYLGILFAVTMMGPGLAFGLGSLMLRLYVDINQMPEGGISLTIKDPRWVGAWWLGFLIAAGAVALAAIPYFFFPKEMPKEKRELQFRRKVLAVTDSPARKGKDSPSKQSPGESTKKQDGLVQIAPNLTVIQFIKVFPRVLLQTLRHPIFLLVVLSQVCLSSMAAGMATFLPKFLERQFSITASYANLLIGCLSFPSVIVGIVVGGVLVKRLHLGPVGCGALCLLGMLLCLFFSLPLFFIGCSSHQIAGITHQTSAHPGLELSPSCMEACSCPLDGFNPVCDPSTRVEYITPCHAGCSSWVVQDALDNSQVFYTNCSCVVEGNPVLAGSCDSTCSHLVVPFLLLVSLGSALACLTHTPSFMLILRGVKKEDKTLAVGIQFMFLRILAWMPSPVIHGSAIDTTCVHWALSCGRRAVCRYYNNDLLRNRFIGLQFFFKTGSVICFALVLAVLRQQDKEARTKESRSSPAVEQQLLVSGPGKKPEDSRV
Description: as §1, §2

Q: With `CCC(CC)COC(=O)[C@H](C)N[P@](=O)(OC[C@H]1O[C@@](C#N)(c2ccc3c(N)ncnn23)[C@H](O)[C@@H]1O)Oc1ccccc1` [Remdesivir] as the compound, how does the “Effect on prototypic substrate uptake” value (OATP1B1; 0.05 µM BSP, 10 min uptake, different remdesivir concentrations) read?
A: significant concentration-dependent inhibitory effect

Q: What about the “Transporter inhibition at 10 µM” value (OATP1B1; 10 µM remdesivir, BSP as substrate) of the same compound?
A: inhibition

Q: And the “Effect on prototypic substrate uptake” value (OATP2B1; 1 µM estrone sulfate, 30 sec uptake, different remdesivir concentrations)?
A: significant concentration-dependent inhibitory effect

Q: And the “Transporter inhibition at 10 µM” value (OATP2B1; 10 µM remdesivir, estrone sulfate as substrate)?
A: inhibition
